Values of other authors as cited in patent US9492489B2, “Uses of hibiscus, in particular pharmaceutical uses” (NATUREX, priority 2007, dated 2016).

Measured: antibacterial properties in vitro

O=c1c(O)c(-c2ccc(O)c(O)c2)oc2c(O)c(O)cc(O)c12 [gossypetin, 3,5,7,8,3′,4′-hexahydroxy-flavone]
antibacterial properties: Escherichia coli | Staphylococcus aureus | Bacillus subtilis | Bacillus pumpilus | Pseudomonas aeruginosa
